According to patent US20160137639A1, “TRIAZOLE-ISOXAZOLE COMPOUND AND MEDICAL USE THEREOF” (JAPAN TOBACCO INC., priority 2012, published 2016):
Like-named read-outs stand apart in the source and are kept apart here.

Assays:
human RORγ = molecular target: T1, human RORγ (Homo sapiens, UniProt P51449); assay: Luciferase reporter gene assay of inhibitory effect against RORγ transcriptional activity (GAL4-hRORγ plasmid in CHO cells); assay type: cell-based
T1 construct: human, NM_005060.3 and from Ser253 to Lys518; expressed in transfected cells; host or cells: CHO cells (transient co-transfection with pG5-Luc reporter)
T1 sequence (P51449 253-518): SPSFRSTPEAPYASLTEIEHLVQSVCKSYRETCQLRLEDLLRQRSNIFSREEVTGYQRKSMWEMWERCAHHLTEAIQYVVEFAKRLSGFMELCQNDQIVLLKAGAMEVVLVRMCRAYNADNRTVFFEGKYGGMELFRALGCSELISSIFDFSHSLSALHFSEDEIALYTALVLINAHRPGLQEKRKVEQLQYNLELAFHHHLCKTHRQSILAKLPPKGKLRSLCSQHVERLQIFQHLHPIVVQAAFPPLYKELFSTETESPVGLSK
Description: (§1) In vitro assay of inhibitory effect against RORγ transcriptional activity
(§2) Inhibitory effect of test article on transcriptional activity of RORγ was measured by means of the following luciferase reporter gene assay.
(§3) A cDNA encoding human and mouse RORγ ligand binding domain (LBD) were obtained based on the reported sequences (Genebank accession number and sequence: human, NM_005060.3 and from Ser253 to Lys518; mouse, NM_011281.2 and from Ile251 to Lys516).
(§4) The cDNA of human RORγ or mouse RORγ was inserted into pFA-CMV vector (Strategene), which expresses GAL4-DNA binding domain fusion protein.
(§5) The resulting plasmids are hereinafter referred to as GAL4-hRORγ plasmid and GAL4-mRORγ plasmid, respectively.
(§6) Human or mouse GAL4-RORγ plasmid was transiently co-transfected into Chinese hamster ovary cells (CHO cells) with […] plasmid, a reporter plasmid expressing firefly luciferase depending on GAL4.
(§7) TransIT CHO transfection reagent (Mirus) was used to co-transfect human or mouse GAL4-RORγ plasmid into CHO cells with pG5-Luc plasmid.
(§8) One day before the assay, CHO cells were suspended in HAM F-12 Nutrient medium containing 10 v/v % fetal bovine serum and seeded at 6×10^6 cells per 175 cm^2 cell culture flask.
(§9) Fifty four micro litters of Transit-CHO reagent was added into a 15 ml tube containing 1.16 ml of HAM F-12 Nutrient medium without fetal bovine serum and incubated at room temperature for 10 min.
A total 36 uL plasmid solution containing the GAL4-hRORγ plasmid (400 ng), pG5-Luc plasmid (9000 ng) and pcDNA3 plasmid (8600 ng) were added into the tube and mixed gently.
(§10) The mixture was incubated at room temperature for 10 min.
(§11) Nine micro litters of CHO Mojo Reagent was then added into each tube and mixed gently. The mixture was incubated at room temperature for 10 min.
(§12) The resultant transfection reagent was applied to the cell culture.
(§13) After incubation at 37° C., 5% CO2 for 4 hr, the transfected CHO cells were harvested by a trypsin treatment.
(§14) The collected cells were resuspended in HAM F-12 Nutrient medium supplemented with 10 v/v % fetal bovine serum and plated into a 384-well-white plate at 8,000 cells/50 uL/well.
(§15) The plate was incubated at room temperature for 1 hour and then further incubated at 37° C., 5% CO2 for 3 hours.
(§16) The test articles were dissolved in dimethylsulfoxide (DMSO) to obtain a concentration of 10 mmol/L. The resulting solution was diluted with the medium just before use and added to the cells in the plate to prepare 8 different concentrations of the test article.
(§17) The final concentration of DMSO was 0.1 v/v % After the addition of the test articles, the cells were incubated at 37° C., 5% CO2 for 2 days.
(§18) RORγ transcriptional activity was detected as the intracellular luciferase activity using SteadyLite HTS Reporter Gene Assay System (Perkin Elmer).
(§19) StedyLite Reagent was diluted five-fold into a solution containing 10 mM Tricine, 0.2% w/v BSA, 0.02% v/v Tween-20 to obtain the luciferase substrate solution.
(§20) After the measurement of the cell viability using Resazurin, the culture media in the 384 well-plate were removed. Then the Luc substrate solution was added into each well.
(§21) After the incubation at room temperature for 10 minutes, luminescence of each well was measured by a microplate reader.
(§22) The luciferase activity derived from the luminescence count in the vehicle-control well treated with 0.1% DMSO alone was defined as 100%, and the luciferase activity in the test article was calculated as a percentage (%-of-control) based on the value of the vehicle-control.
(§23) EC50 value of test article was calculated by curve fitting with GraphPad Prism.
(§24) The luminescence counts at the concentration of the test article where the cytotoxicity was observed were excluded from the data analysis.

mouse RORγ = molecular target: T2, mouse RORγ (Mus musculus, UniProt P51450); assay: Luciferase reporter gene assay of inhibitory effect against RORγ transcriptional activity (GAL4-mRORγ plasmid in CHO cells); assay type: cell-based
T2 construct: mouse, NM_011281.2 and from Ile251 to Lys516; expressed in transfected cells; host or cells: CHO cells (transient co-transfection with pG5-Luc reporter)
T2 sequence (P51450 251-516): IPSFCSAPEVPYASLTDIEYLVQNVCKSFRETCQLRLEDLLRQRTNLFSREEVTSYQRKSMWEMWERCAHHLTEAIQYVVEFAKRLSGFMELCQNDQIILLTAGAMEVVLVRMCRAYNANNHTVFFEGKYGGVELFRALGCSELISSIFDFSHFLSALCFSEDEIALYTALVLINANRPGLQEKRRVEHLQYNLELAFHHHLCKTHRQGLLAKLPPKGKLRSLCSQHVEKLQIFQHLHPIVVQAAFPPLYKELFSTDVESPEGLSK
Description: as §1, §2, §3, §4, §5, §6, §7, §8, §9, §10, §11, §12, §13, §14, §15, §16, §17, §18, §19, §20, §21, §22, §23, §24

Compound | EC50 (human RORγ; read-out: LUC EC50 hRORg) | EC50 (mouse RORγ; read-out: LUC EC50 mRORg) | EC50 (human RORγ; read-out: LUC EC50 (μM) hRORg) | EC50 (mouse RORγ; read-out: LUC EC50 (μM) mRORg)
COc1cc(NC(=O)C[C@H](CCO)c2nnc([C@H]3C[C@@H](CC(C)C)C3)n2C2CC2)ccc1Cl [Example F-520] | < 3 µM | < 3 µM | – | –
Cc1ccc(NC(=O)C[C@@H](c2nnc([C@H]3C[C@@H](CC(C)C)C3)n2C2CC2)N(C)C(C)C)c(C)c1 [Example F-537] | < 3 µM | < 3 µM | – | –
Cc1ccc(NC(=O)CC(CC(N)=O)c2nnc(CCCC(C)C)n2C2CC2)c(C)c1 (racemic) [Example F-253] | – | – | > 3 µM | > 3 µM
Cc1ccc(NC(=O)[C@H]2CN(CC(C)C)C[C@@H]2c2nnc([C@H]3C[C@@H](CC(C)C)C3)n2C2CC2)c(C)c1 [Example F-596] | < 3 µM | < 3 µM | – | –
CCn1c(CCC(=O)Nc2cccc3ccccc23)nnc1C1Cc2ccccc2C1 [Example F-1] | – | – | < 3 µM | < 3 µM
COc1cc(C(F)(F)F)ccc1CNC(=O)CCc1nnc(CCC(C)C)n1C1CC1 [Example F-263] | – | – | < 3 µM | < 3 µM
Cc1ccccc1NC(=O)CCc1nnc(CCC(C)C)n1C1CC1 [Example F-64] | – | – | > 3 µM | > 3 µM
COc1cc(C)ccc1CNC(=O)[C@H]1CCC(=O)N(C)[C@@H]1c1nnc(CCCC(C)(C)C)n1C1CC1 [Example F-323] | – | – | < 3 µM | < 3 µM
CC(=O)N1C[C@@H](C(=O)Nc2ccc(C)cc2C)[C@H](c2nnc(-c3ccc(C(C)C)cc3)n2C2CC2)C1 [Example F-372] | – | – | > 3 µM | > 3 µM
Cc1c(Cl)cccc1NC(=O)CCc1nnc(CCN2CCC(F)(F)CC2)n1C1CC1 [Example F-261] | – | – | > 3 µM | < 3 µM
Cc1ccc(NC(=O)CCc2nnc(C3CC4(CCCC4)C3)n2C2CC2)c(C)c1 [Example F-420] | – | – | < 3 µM | < 3 µM
Cc1cccc(NC(=O)CCc2nnc(CCCC(C)C)n2C2CC2)c1C [Example F-216] | – | – | < 3 µM | < 3 µM
CCn1c(CCC(=O)Nc2ccc(C)cc2C)nnc1CCC1CCCCC1 [Example F-40] | – | – | < 3 µM | < 3 µM
Cc1ccc(NC(=O)C[C@H](CCC(=O)O)c2noc(-c3cc(CCC(C)(C)C)on3)c2C2CC2)c(Cl)c1 [Example E-22] | – | – | < 3 µM | < 3 µM
O=C(O)CC[C@@H](CC(=O)Nc1ccc(Cl)cc1Cl)c1noc(-c2cc(C3CCCC3)on2)c1C1CC1 [Example E-70] | – | – | < 3 µM | < 3 µM
Cc1ccc(NCc2nnc(CCC(=O)Nc3cccc(Cl)c3C)n2C2CC2)cc1 [Example F-180] | – | – | > 3 µM | < 3 µM
CCn1c(C2Cc3ccccc3C2)nnc1[C@H](C)CC(=O)Nc1cccc2ccccc12 [Example F-2] | – | – | < 3 µM | < 3 µM
Cc1ccc(NC(=O)[C@H]2CC(N(C)C)C[C@@H]2c2nnc([C@H]3C[C@@H](CC(C)C)C3)n2C2CC2)c(C)c1 (single isomer, unassigned) [Example F-534] | < 3 µM | < 3 µM | – | –
Cc1c(Cl)cccc1NC(=O)CCc1nnc(CCN2CCCCC2)n1C1CC1 [Example F-169] | – | – | > 3 µM | > 3 µM
Cc1ccc(NC(=O)C[C@H](Cc2nccs2)c2nnc([C@H]3C[C@@H](CC(C)C)C3)n2C2CC2)c(C)c1 [Example F-475] | – | – | < 3 µM | < 3 µM

Compound | EC50 (human RORγ; read-out: LUC EC50 hRORg) | EC50 (mouse RORγ; read-out: LUC EC50 mRORg) | EC50 (human RORγ; read-out: LUC EC50 (μM) hRORg) | EC50 (mouse RORγ; read-out: LUC EC50 (μM) mRORg)
CC(C)(C)Cc1cc(-c2onc([C@@H](CCC(=O)O)CC(=O)Nc3ccc(Cl)cc3Cl)c2C2CC2)no1 [Example E-78] | < 3 µM | < 3 µM | – | –
Cc1ccc(NC(=O)C[C@H](CC(F)(F)F)c2nnc([C@H]3C[C@@H](CC(C)C)C3)n2C2CC2)c(C)c1 [Example F-568] | < 3 µM | < 3 µM | – | –
C=CCC(CC(=O)Nc1cccc(Cl)c1C)c1nnc(CCC(C)C)n1C1CC1 (racemic) [Example F-193] | – | – | < 3 µM | < 3 µM
Cc1ccc(NC(=O)[C@H]2CC(CO)C[C@@H]2c2nnc([C@H]3C[C@@H](CC(C)C)C3)n2C2CC2)c(C)c1 (single isomer, unassigned) [Example F-512] | < 3 µM | < 3 µM | – | –
CC(=O)N1C[C@H](C(=O)Nc2ccc(F)cc2C)[C@@H](c2nnc([C@H]3C[C@@H](CC(C)C)C3)n2C2CC2)C1 [Example F-600] | < 3 µM | < 3 µM | – | –
Cc1ccc(NC(=O)[C@H]2CC(=O)N(C)[C@@H]2c2nnc(CCCC(C)(C)C)n2C2CC2)c(C)c1 [Example F-388] | – | – | < 3 µM | < 3 µM
Cc1ccc(NC(=O)CC(CCO)c2nnc(CCCC(C)(C)C)n2C2CC2)c(C)c1 (racemic) [Example F-307] | – | – | < 3 µM | < 3 µM
Cc1c(Cl)cccc1NC(=O)CCc1nnc(COC2CCCCC2)n1C1CC1 [Example F-144] | – | – | < 3 µM | < 3 µM
Cc1cc(Cl)ccc1NC(=O)C[C@H](CC(C)C)c1nnc(-c2cc(CCC(C)C)on2)n1C1CC1 [Example F-628] | < 3 µM | < 3 µM | – | –
Cc1ccc(NC(=O)[C@H]2CN(C(C)C)C[C@@H]2c2nnc([C@H]3C[C@@H](CC(C)C)C3)n2C2CC2)c(C)c1 [Example F-597] | < 3 µM | < 3 µM | – | –
Cc1ccc(NC(=O)[C@H]2C[C@H](O)C[C@@H]2c2nnc([C@H]3C[C@@H](CC(C)C)C3)n2C2CC2)c(C)c1 (racemic) [Example F-421] | – | – | < 3 µM | < 3 µM
Cc1ccc(NC(=O)CC(CCO)c2noc(C3CC(CC(C)C)C3)c2C2CC2)c(C)c1 (stereo not drawn) [Example F-580] | < 3 µM | < 3 µM | – | –
Cc1c(Cl)cccc1NC(=O)CCc1nnc(CCOC(C)(C)C)n1C1CC1 [Example F-163] | – | – | < 3 µM | < 3 µM
CC(=O)N[C@@H](CC(=O)Nc1ccc(C)cc1C)c1nnc(CCCC(C)C)n1C1CC1 [Example F-291] | – | – | < 3 µM | < 3 µM
COc1cc(C)ccc1CNC(=O)[C@H]1CCN(C(C)=O)[C@@H]1c1nnc(CCC2CCCCC2)n1C1CC1 [Example F-228] | – | – | < 3 µM | < 3 µM
CCn1c(C(C)CC(=O)Nc2cccc3ccccc23)nnc1C1Cc2ccccc2C1 (racemic) [Example F-33] | – | – | < 3 µM | < 3 µM
Cc1ccc(CCNC(=O)CCc2nnc(CCC(C)C)n2C2CC2)cc1 [Example F-67] | – | – | > 3 µM | > 3 µM
O=C(CCc1nnc(C2Cc3ccccc3C2)[nH]1)Nc1cccc2ccccc12 [Example F-9] | – | – | > 3 µM | > 3 µM
Cc1ccc(NC(=O)C[C@H](CCC(=O)O)c2noc(-c3cc(CC(C)C)on3)c2C(F)(F)F)c(F)c1 [Example E-12] | – | – | > 3 µM | < 3 µM
